Data: ChEMBL document CHEMBL1155084 (J Med Chem, 2008)

Assays:
Blood [1] = assay: Inhibition of IL1-beta release in human whole blood; format: functional, tissue-based
[2] = Inhibition of p38 MAPK
Blood [3] = assay: Inhibition of TNFalpha release in human whole blood; format: functional, tissue-based
[4] = molecular target: Rho-associated protein kinase 2 (Homo sapiens) (UniProt O75116); assay: Inhibition of human ROCK2 at 10 uM
CYP2C19 = CYP2C19 (Homo sapiens, UniProt P33261); assay: Inhibition of CYP2C19 at 10 uM; format: ADME
[5] = molecular target: Mitogen-activated protein kinase 1 (Homo sapiens) (UniProt P28482); assay: Inhibition of human MAPK2/ERK2 at 10 uM
[6] = molecular target: Dual specificity mitogen-activated protein kinase kinase 1 (Homo sapiens) (UniProt Q02750); assay: Inhibition of human MEK1 at 10 uM
Homo sapiens [7] = species: Homo sapiens; assay: Inhibition of human CAMK2 at 10 uM
[8] = molecular target: Glycogen synthase kinase-3 beta (Homo sapiens) (UniProt P49841); assay: Inhibition of human GSK3-beta at 10 uM
CYP1A2 = molecular target: T1, CYP1A2 (Homo sapiens, UniProt P05177); assay: Inhibition of CYP1A2 at 10 uM; format: ADME
T1 sequence (P05177 whole entry): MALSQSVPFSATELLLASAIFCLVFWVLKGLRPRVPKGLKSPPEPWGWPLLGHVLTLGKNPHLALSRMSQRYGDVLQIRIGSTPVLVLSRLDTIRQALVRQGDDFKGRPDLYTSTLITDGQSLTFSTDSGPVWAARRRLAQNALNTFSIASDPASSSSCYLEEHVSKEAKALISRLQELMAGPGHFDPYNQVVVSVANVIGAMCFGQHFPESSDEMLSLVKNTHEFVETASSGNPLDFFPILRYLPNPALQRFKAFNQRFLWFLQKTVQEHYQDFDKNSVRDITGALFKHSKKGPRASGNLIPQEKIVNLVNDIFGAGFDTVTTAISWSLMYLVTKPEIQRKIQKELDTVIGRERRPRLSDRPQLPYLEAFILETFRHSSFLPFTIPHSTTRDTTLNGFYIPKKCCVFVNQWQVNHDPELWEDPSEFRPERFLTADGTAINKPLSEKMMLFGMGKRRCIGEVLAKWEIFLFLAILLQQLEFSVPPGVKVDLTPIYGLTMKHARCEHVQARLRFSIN

[9] = molecular target: Mitogen-activated protein kinase 10 (Homo sapiens) (UniProt P53779); assay: Inhibition of human JNK3 at 10 uM
[10] = molecular target: RAF proto-oncogene serine/threonine-protein kinase (Homo sapiens) (UniProt P04049); assay: Inhibition of human c-RAF at 10 uM
[11] = molecular target: Mitogen-activated protein kinase 3 (Homo sapiens) (UniProt P27361); assay: Inhibition of human ERK1 at 10 uM
[12] = molecular target: T2, Mitogen-activated protein kinase 14 (Homo sapiens, UniProt Q16539); assay: Inhibition of p38alpha
[13] = molecular target: RAC-alpha serine/threonine-protein kinase (Homo sapiens) (UniProt P31749); assay: Inhibition of human PKBalpha at 10 uM
Homo sapiens [14] = species: Homo sapiens; assay: Inhibition of human JNK1-alpha-1/SAPK1c at 10 uM
CYP3A4 = CYP3A4 (Homo sapiens, UniProt P08684); assay: Inhibition of CYP3A4 at 10 uM; format: ADME
Homo sapiens [15] = species: Homo sapiens; assay: Inhibition of human PKA at 10 uM
[16] = molecular target: Tyrosine-protein kinase Lck (Homo sapiens) (UniProt P06239); assay: Inhibition of human LCK at 10 uM
[17] = molecular target: T2, Mitogen-activated protein kinase 14; conditions: at 10 µM
Description: Inhibition of human SAPK2a/p38-alpha at 10 uM

CYP2C9 = CYP2C9 (Homo sapiens, UniProt P11712); assay: Inhibition of CYP2C9 at 10 uM; format: ADME
[18] = molecular target: Mitogen-activated protein kinase 9 (Homo sapiens) (UniProt P45984); assay: Inhibition of human JNK2alpha2 at 10 uM
[19] = molecular target: Protein kinase C alpha type (Homo sapiens) (UniProt P17252); assay: Inhibition of human PKCalpha at 10 uM
CYP2D6 = CYP2D6 (Homo sapiens, UniProt P10635); assay: Inhibition of CYP2D6 at 10 uM; format: ADME
Chain of CYP2D6 (P10635 whole entry): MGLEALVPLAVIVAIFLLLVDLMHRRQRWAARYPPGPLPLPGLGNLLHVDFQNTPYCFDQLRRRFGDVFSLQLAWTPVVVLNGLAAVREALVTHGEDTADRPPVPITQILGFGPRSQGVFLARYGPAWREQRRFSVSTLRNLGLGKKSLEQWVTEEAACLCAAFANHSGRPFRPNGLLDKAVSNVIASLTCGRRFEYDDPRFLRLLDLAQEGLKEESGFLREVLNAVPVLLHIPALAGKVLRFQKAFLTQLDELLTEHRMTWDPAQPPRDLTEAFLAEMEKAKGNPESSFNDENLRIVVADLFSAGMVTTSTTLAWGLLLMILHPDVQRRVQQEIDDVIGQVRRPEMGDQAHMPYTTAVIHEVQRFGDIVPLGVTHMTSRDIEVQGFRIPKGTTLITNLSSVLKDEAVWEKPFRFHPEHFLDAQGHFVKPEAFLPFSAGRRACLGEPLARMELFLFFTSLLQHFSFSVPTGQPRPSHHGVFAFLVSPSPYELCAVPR

Chain of Mitogen-activated protein kinase 3 (Homo sapiens) (P27361 whole entry): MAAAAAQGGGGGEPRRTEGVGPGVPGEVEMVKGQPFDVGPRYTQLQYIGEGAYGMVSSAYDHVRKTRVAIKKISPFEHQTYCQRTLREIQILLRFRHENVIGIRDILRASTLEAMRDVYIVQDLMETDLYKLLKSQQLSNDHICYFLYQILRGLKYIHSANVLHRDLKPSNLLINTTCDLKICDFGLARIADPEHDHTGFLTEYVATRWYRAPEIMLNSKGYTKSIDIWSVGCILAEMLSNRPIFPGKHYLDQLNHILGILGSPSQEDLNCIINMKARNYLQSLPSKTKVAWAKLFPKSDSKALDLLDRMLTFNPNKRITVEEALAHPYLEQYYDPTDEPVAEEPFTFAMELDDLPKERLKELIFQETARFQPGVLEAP
Chain of Mitogen-activated protein kinase 10 (Homo sapiens) (P53779 whole entry): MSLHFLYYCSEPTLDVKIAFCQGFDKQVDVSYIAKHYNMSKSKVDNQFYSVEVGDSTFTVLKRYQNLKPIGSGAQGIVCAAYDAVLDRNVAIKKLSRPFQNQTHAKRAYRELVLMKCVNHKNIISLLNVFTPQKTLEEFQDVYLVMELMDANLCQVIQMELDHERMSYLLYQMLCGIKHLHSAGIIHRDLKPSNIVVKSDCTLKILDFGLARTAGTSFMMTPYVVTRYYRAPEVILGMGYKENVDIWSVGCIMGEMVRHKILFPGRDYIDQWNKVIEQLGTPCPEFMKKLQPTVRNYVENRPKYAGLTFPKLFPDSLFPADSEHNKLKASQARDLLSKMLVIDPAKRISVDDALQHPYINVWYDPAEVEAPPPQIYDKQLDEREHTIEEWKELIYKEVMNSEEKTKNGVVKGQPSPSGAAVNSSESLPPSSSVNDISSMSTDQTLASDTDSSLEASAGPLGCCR
Chain of RAC-alpha serine/threonine-protein kinase (Homo sapiens) (P31749 whole entry): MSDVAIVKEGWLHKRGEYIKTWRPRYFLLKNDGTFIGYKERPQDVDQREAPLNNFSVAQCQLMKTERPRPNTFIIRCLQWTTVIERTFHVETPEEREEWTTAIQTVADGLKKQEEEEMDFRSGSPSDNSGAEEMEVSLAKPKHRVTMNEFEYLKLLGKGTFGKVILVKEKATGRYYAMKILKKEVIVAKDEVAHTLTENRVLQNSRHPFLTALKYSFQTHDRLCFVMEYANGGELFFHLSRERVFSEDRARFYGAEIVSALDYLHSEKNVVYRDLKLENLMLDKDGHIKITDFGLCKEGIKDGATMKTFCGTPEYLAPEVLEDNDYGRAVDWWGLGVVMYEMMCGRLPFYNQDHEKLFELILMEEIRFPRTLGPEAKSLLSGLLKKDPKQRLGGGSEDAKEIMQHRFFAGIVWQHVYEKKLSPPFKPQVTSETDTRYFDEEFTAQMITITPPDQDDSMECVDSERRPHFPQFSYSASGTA
Chain of Tyrosine-protein kinase Lck (Homo sapiens) (P06239 2-509 limits assumed): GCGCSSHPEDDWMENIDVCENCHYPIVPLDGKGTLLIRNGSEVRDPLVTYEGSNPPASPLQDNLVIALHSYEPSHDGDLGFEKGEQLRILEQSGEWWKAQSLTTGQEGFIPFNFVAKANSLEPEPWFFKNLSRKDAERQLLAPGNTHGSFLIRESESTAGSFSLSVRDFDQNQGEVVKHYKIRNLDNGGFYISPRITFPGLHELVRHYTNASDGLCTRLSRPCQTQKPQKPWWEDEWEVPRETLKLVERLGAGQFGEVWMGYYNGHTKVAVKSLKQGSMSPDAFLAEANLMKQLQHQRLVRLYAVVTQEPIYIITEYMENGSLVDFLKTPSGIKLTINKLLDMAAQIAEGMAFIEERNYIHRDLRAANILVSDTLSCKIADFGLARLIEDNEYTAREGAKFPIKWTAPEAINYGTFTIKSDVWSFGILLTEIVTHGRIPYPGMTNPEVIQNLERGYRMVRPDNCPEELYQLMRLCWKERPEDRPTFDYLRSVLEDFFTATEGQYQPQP
Chain of Mitogen-activated protein kinase 9 (Homo sapiens) (P45984 whole entry, looked up): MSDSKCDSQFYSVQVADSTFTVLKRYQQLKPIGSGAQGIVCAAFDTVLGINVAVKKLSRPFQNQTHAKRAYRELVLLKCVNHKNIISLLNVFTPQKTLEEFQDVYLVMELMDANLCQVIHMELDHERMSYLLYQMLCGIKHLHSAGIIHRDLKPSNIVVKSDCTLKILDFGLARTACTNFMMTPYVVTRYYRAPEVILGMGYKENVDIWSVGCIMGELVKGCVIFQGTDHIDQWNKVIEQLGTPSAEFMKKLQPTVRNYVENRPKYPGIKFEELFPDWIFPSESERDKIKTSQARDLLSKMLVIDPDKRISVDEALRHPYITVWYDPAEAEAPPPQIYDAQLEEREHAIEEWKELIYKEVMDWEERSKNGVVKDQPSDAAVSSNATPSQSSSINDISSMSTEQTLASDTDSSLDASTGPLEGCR
Chain of CYP2C9 (P11712 whole entry): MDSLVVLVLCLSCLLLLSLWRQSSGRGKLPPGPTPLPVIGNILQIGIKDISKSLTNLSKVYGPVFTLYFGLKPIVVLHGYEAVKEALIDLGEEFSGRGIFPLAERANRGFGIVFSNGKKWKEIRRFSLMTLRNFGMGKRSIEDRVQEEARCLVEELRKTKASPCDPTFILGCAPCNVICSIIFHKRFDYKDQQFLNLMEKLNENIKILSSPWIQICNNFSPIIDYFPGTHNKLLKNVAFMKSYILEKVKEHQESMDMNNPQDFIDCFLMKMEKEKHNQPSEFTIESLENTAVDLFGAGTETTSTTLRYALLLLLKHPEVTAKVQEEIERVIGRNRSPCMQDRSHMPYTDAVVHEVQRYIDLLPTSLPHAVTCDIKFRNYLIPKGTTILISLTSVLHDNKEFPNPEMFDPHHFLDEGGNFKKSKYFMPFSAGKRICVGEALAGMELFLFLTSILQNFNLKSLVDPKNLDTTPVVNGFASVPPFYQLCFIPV
Chain of Mitogen-activated protein kinase 1 (Homo sapiens) (P28482 whole entry, looked up): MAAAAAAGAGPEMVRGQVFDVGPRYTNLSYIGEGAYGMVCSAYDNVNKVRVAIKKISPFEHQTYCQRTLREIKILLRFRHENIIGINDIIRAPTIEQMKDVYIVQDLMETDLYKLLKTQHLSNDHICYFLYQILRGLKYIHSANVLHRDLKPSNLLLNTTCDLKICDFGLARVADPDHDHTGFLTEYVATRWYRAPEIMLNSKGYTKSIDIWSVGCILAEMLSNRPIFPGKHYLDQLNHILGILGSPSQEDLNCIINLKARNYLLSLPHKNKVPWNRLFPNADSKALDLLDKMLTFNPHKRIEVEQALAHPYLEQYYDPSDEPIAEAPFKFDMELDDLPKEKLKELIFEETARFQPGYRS
T2 sequence (Q16539 whole entry): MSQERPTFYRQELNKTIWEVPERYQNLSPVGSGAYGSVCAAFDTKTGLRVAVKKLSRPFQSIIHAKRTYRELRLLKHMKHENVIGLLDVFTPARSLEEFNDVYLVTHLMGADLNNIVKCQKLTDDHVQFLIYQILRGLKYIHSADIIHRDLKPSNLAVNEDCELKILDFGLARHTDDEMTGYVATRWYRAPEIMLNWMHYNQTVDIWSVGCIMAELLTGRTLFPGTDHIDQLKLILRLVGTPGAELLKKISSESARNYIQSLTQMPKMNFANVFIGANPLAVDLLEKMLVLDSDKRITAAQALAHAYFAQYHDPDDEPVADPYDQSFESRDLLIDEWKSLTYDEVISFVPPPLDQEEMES
Chain of CYP2C19 (P33261 whole entry): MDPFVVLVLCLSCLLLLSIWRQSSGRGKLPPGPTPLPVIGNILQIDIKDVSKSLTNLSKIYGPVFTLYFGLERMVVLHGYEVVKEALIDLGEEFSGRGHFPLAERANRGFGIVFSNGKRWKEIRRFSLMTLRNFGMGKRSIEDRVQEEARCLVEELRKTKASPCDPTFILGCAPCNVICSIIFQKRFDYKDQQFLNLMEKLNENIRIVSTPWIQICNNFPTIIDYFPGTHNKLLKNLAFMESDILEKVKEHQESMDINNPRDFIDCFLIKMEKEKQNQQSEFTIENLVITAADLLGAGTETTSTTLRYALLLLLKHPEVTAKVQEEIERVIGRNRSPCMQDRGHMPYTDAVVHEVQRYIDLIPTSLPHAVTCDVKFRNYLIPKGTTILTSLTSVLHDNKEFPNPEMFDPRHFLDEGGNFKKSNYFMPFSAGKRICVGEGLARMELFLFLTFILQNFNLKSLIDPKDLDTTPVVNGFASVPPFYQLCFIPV
Chain of Dual specificity mitogen-activated protein kinase kinase 1 (Homo sapiens) (Q02750 whole entry): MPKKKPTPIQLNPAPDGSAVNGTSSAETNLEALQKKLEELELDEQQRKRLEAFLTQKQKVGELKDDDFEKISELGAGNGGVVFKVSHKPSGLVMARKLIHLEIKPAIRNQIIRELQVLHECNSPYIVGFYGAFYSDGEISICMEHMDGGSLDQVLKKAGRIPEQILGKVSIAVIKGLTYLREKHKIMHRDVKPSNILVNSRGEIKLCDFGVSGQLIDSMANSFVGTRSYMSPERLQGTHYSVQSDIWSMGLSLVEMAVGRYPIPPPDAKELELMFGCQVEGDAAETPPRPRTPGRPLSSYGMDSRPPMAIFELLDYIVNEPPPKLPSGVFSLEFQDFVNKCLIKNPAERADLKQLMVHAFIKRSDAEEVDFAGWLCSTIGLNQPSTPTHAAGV

CSc1nc(-c2ccc(F)cc2)c(-c2ccnc(NC(C)c3ccccc3)c2)[nH]1 (stereo not drawn)
IC50 (Blood [1]): 4330 nM | IC50 [2]: 380 nM | IC50 (Blood [3]): 4330 nM

CSc1nc(-c2ccc(F)cc2)c(-c2ccnc(NC(C)CCc3ccccc3)c2)[nH]1 (stereo not drawn)
inhibition [4]: 0% | inhibition at 10 µM (CYP2C19): 89% | IC50 (Blood [1]): 2370 nM | inhibition [5]: 17% | inhibition [6]: 3% | inhibition (Homo sapiens [7]): 0% | inhibition [8]: 0% | inhibition at 10 µM (CYP1A2): 38% | inhibition [9]: 99% | inhibition [10]: 19% | inhibition [11]: 32% | IC50 [12]: 13 nM | inhibition [13]: 5% | inhibition (Homo sapiens [14]): 88% | inhibition at 10 µM (CYP3A4): 95% | inhibition (Homo sapiens [15]): 0% | inhibition [16]: 30% | inhibition [17]: 97% | IC50 (Blood [3]): 350 nM | inhibition at 10 µM (CYP2C9): 88% | inhibition [18]: 94% | inhibition [19]: 0% | inhibition at 10 µM (CYP2D6): 78%

C[S+]([O-])c1ccc(CSc2nc(-c3ccc(F)cc3)c(-c3ccncc3)[nH]2)cc1 (stereo not drawn)
IC50 (Blood [1]): 380 nM | IC50 [2]: 4 nM | IC50 (Blood [3]): 1100 nM

CSc1nc(-c2ccc(F)cc2)c(-c2ccnc(NC(C)CCCC(C)C)c2)[nH]1 (stereo not drawn)
inhibition [4]: 0% | inhibition at 10 µM (CYP2C19): 84% | IC50 (Blood [1]): 7560 nM | inhibition [5]: 6% | inhibition [6]: 2% | inhibition (Homo sapiens [7]): 0% | inhibition [8]: 0% | inhibition at 10 µM (CYP1A2): 23% | inhibition [9]: 99% | inhibition [10]: 7% | inhibition [11]: 28% | IC50 [12]: 20 nM | inhibition [13]: 6% | inhibition (Homo sapiens [14]): 86% | inhibition at 10 µM (CYP3A4): 71% | inhibition (Homo sapiens [15]): 0% | inhibition [16]: 47% | inhibition [17]: 94% | IC50 (Blood [3]): 3990 nM | inhibition at 10 µM (CYP2C9): 76% | inhibition [18]: 91% | inhibition [19]: 0% | inhibition at 10 µM (CYP2D6): 66%

CSc1nc(-c2ccc(F)cc2)c(-c2ccnc(NCCc3cccs3)c2)[nH]1
inhibition [4]: 0% | inhibition at 10 µM (CYP2C19): 94% | IC50 (Blood [1]): 23500 nM | inhibition [5]: 31% | inhibition [6]: 1% | inhibition (Homo sapiens [7]): 0% | inhibition [8]: 1% | inhibition at 10 µM (CYP1A2): 83% | inhibition [9]: 99% | inhibition [10]: 53% | inhibition [11]: 46% | IC50 [12]: 23 nM | inhibition [13]: 1% | inhibition (Homo sapiens [14]): 72% | inhibition at 10 µM (CYP3A4): 89% | inhibition (Homo sapiens [15]): 4% | inhibition [16]: 28% | inhibition [17]: 99% | IC50 (Blood [3]): 14500 nM | inhibition at 10 µM (CYP2C9): 93% | inhibition [18]: 90% | inhibition [19]: 0% | inhibition at 10 µM (CYP2D6): 88%

CSc1nc(-c2ccc(F)cc2)c(-c2ccnc(NC(C)c3ccccc3)c2)n1C (stereo not drawn)
IC50 (Blood [1]): 4100 nM | IC50 [2]: 220 nM | IC50 (Blood [3]): 3000 nM

FC(F)(F)c1cccc(-c2nc(-c3ccccc3)[nH]c2-c2ccncc2)c1
IC50 [2]: 86 nM

CSc1nc(-c2ccc(F)cc2)c(-c2ccncc2)[nH]1
IC50 (Blood [1]): 44 nM | IC50 [2]: 630 nM | IC50 (Blood [3]): 8650 nM

Clc1ccc(-c2nc(-c3ccccc3)[nH]c2-c2ccncc2)cc1
IC50 [2]: 48 nM
